In ChEMBL document CHEMBL5370670, “Anti-MRSA Dimeric and Brominated Phenyltetracenoids Produced by Streptomyces morookaense SC1169” (J Nat Prod, 2023):
Values after ≈ are worked out from the molar mass of the structure shown.

Tests used:
Staphylococcus aureus [1] = assay: Antibacterial activity against methicillin-resistant Staphylococcus aureus incubated for 6 to 8 hrs by microplate Alamar Blue assay; assay type: functional; conditions: time 6-8 hrs
Enterococcus faecium [2] = assay: Antibacterial activity against vancomycin-resistant Enterococcus faecium incubated for 6 to 8 hrs by microplate Alamar Blue assay; assay type: functional; conditions: time 6-8 hrs
Enterococcus faecium [3] = assay: Antibacterial activity against Enterococcus faecium incubated for 6 to 8 hrs by microplate Alamar Blue assay; assay type: functional; conditions: time 6-8 hrs
Staphylococcus aureus [4] = assay: Antibacterial activity against Staphylococcus aureus ATCC 6538 incubated for 6 to 8 hrs by microplate Alamar Blue assay; assay type: functional; conditions: time 6-8 hrs
HeLa = assay: Cytotoxicity against human HeLa cells assessed as cell growth inhibition incubated for 48 hrs by MTT assay; assay type: functional, cell-based
HepG2 = assay: Cytotoxicity against human HepG2 cells assessed as cell growth inhibition incubated for 48 hrs by MTT assay; assay type: functional, cell-based; conditions: HepG2, 48 h
MCF7 = assay: Cytotoxicity against human MCF7 cells assessed as cell growth inhibition incubated for 48 hrs by MTT assay; assay type: functional, cell-based; conditions: MCF7, 48 h
[5] = Cytotoxicity against African green monkey Vero cells assessed as cell growth inhibition incubated for 48 hrs by MTT assay; assay type: toxicity, cell-based; conditions: African green monkey (Chlorocebus sabaeus)
A549 = assay: Cytotoxicity against human A549 cells assessed as cell growth inhibition incubated for 48 hrs by MTT assay; assay type: functional, cell-based; conditions: A549, 48 h

## COc1cc(C)c(-c2cc(OC)cc3cc4c(c(O)c23)C(=O)c2c(O)cc(O)cc2C4(C)C)c(O)c1
Staphylococcus aureus [1]
  MIC: 1.3 µg/mL (≈ 2.67 µM)
Enterococcus faecium [2]
  MIC: 1.3 µg/mL (≈ 2.67 µM)
Enterococcus faecium [3]
  MIC: 1.3 µg/mL (≈ 2.67 µM)
Staphylococcus aureus [4]
  MIC: 1.3 µg/mL (≈ 2.67 µM)

## COc1cc(C)c(-c2cc(O)c(Cl)c3cc4c(c(O)c23)C(=O)c2c(cc(OC)c(Cl)c2O)C4(C)C)c(O)c1
Staphylococcus aureus [1]
  MIC: 2.5 µg/mL (≈ 4.5 µM)
Enterococcus faecium [2]
  MIC: 2.5 µg/mL (≈ 4.5 µM)
Enterococcus faecium [3]
  MIC: 2.5 µg/mL (≈ 4.5 µM)
Staphylococcus aureus [4]
  MIC: 2.5 µg/mL (≈ 4.5 µM)

## COc1cc(C)c(-c2cc(O)cc3cc4c(c(O)c23)C(=O)c2c(cc(OC)c(Cl)c2O)C4(C)C)c(O)c1
Staphylococcus aureus [1]
  MIC: 2.5 µg/mL (≈ 4.8 µM)
Enterococcus faecium [2]
  MIC: 2.5 µg/mL (≈ 4.8 µM)
Enterococcus faecium [3]
  MIC: 2.5 µg/mL (≈ 4.8 µM)
Staphylococcus aureus [4]
  MIC: 2.5 µg/mL (≈ 4.8 µM)

## COc1cc(C)c(-c2cc(OC)cc3cc4c(c(O)c23)C(=O)c2c(O)cc(OC)cc2C4(C)C)c(O)c1
Staphylococcus aureus [1]
  MIC: > 10 µg/mL
HeLa
  IC50: 6.7 µM
HepG2
  IC50: 2.7 µM
MCF7
  IC50: 6.2 µM
[5]
  IC50 at 48 h: 7.6 µM
A549
  IC50: 4.6 µM
Enterococcus faecium [3]
  MIC: > 10 µg/mL
Staphylococcus aureus [4]
  MIC: > 10 µg/mL

## COc1cc(C)c(-c2cc(O)cc3cc4c(c(O)c23)C(=O)c2c(O)cc(OC)cc2C4(C)C)c(O)c1
Staphylococcus aureus [1]
  MIC: 2.5 µg/mL (≈ 5.14 µM)
HeLa
  IC50: 6.5 µM
HepG2
  IC50: 7 µM
MCF7
  IC50: 16.5 µM
Enterococcus faecium [2]
  MIC: 2.5 µg/mL (≈ 5.14 µM)
[5]
  IC50 at 48 h: 6.7 µM
A549
  IC50: 5.3 µM
Enterococcus faecium [3]
  MIC: 1.3 µg/mL (≈ 2.67 µM)
Staphylococcus aureus [4]
  MIC: 2.5 µg/mL (≈ 5.14 µM)

## COc1cc(C)c(-c2cc(O)cc3cc4c(c(O)c23)C(=O)c2c(cc(OC)c(Br)c2O)C4(C)C)c(O)c1
Staphylococcus aureus [1]
  MIC: 0.6 µg/mL (≈ 1.06 µM)
HeLa
  IC50: 4.1 µM
HepG2
  IC50: 3.5 µM
MCF7
  IC50: 3.1 µM
Enterococcus faecium [2]
  MIC: 1.3 µg/mL (≈ 2.3 µM)
[5]
  IC50 at 48 h: 2.8 µM
A549
  IC50: 2.5 µM
Enterococcus faecium [3]
  MIC: 1.3 µg/mL (≈ 2.3 µM)
Staphylococcus aureus [4]
  MIC: 0.6 µg/mL (≈ 1.06 µM)

## COc1cc(C)c(-c2cc(O)cc3cc4c(c(O)c23)C(=O)c2c(cc(OC)c(Br)c2OC)C4(C)C)c(O)c1
Staphylococcus aureus [1]
  MIC: 5 µg/mL (≈ 8.63 µM)
HeLa
  IC50: 5.1 µM
HepG2
  IC50: 5.7 µM
MCF7
  IC50: 8.6 µM
Enterococcus faecium [2]
  MIC: 5 µg/mL (≈ 8.63 µM)
[5]
  IC50 at 48 h: 5.8 µM
A549
  IC50: 4.7 µM
Enterococcus faecium [3]
  MIC: 5 µg/mL (≈ 8.63 µM)
Staphylococcus aureus [4]
  MIC: 5 µg/mL (≈ 8.63 µM)

## COc1cc(-c2c(O)cc(OC)c(Cc3c(OC)cc(C)c(-c4cc(OC)cc5cc6c(c(O)c45)C(=O)c4c(O)cc(O)cc4C6(C)C)c3O)c2C)c2c(O)c3c(cc2c1)C(C)(C)c1cc(O)cc(O)c1C3=O
Staphylococcus aureus [1]
  MIC: > 10 µg/mL
HeLa
  IC50: > 50 µM
HepG2
  IC50: > 50 µM
MCF7
  IC50: > 50 µM
[5]
  IC50 at 48 h: > 50 µM
A549
  IC50: > 50 µM
Enterococcus faecium [3]
  MIC: > 10 µg/mL
Staphylococcus aureus [4]
  MIC: > 10 µg/mL

## COc1cc(C)c(-c2cc(OC)cc3cc4c(c(O)c23)C(=O)c2c(OC)cc(OC)cc2C4(C)C)c(O)c1
Staphylococcus aureus [1]
  MIC: > 10 µg/mL
HeLa
  IC50: 7.7 µM
HepG2
  IC50: 5.8 µM
MCF7
  IC50: 9.2 µM
[5]
  IC50 at 48 h: 9 µM
A549
  IC50: 6 µM
Enterococcus faecium [3]
  MIC: > 10 µg/mL
Staphylococcus aureus [4]
  MIC: > 10 µg/mL

## COC1=CC(=O)C(c2cc(OC)cc3cc4c(c(O)c23)C(=O)c2c(O)cc(O)cc2C4(C)C)=C(C)C1=O
Staphylococcus aureus [1]
  MIC: > 10 µg/mL
HeLa
  IC50: 14.6 µM
HepG2
  IC50: 12.4 µM
MCF7
  IC50: 9.6 µM
[5]
  IC50 at 48 h: 15.1 µM
A549
  IC50: 8.9 µM
Enterococcus faecium [3]
  MIC: > 10 µg/mL
Staphylococcus aureus [4]
  MIC: > 10 µg/mL
